From patent US5994349A, “3-carboalkoxy-2, 3-dihydro-1H-phenothiazin-4[10H]-one derivatives” (priority 1997, dated 1999)
Read-outs that look alike come from different tables or passages of the source.

How the values were obtained:
[1] = rotorod toxicity, oral rat (Phase VIA/VIB); assay type: in vivo, male Sprague-Dawley rats; conditions: rat, in vivo, po
Method: (§1) Initial evaluations for anticonvulsant activity include phases I, VIA and VIB test procedures. These tests are performed intraperitoneally in male Carworth Farms No. 1 (CF1) mice, weighing 18-25 g (Phase I) or orally in male Sprague-Dawley rats, weighing 100-150 g (Phases VIA and VIB). The evaluation is based on three tests: maximal electroshock (MES), subcutaneous (scMet), and the rotorod test for neurological toxicity (Tox). (a) Anticonvulsant Screening Project, Antiepileptic Drug Development Program, National Institutes of Health, DHEW Publ (NIH)(U.S.) 1978, NIH 78-1093. (b) Porter, R. J.; Cereghino, J. J.; Gladding, G. D.; Hessie, B. J.; Kupferberg, H. J.; Scoville, B.; White, B. G. Antiepileptic drug development program. Cleveland Clin. Q. 1984, 51, 293-305. (c) Krall, R. L.; Penry, J. K.; White, B. G.; Kupferberg, H. J.; Swinyard, E. A. Antiepileptic drug development: II. Anticonvulsant drug screening. Epilepsia 1978, 19, 400-428. In the MES test, maximal electroshock seizures are elicited with a 60- cycle alternating current of 50 mA intensity (5-7 times that necessary to elicit minimal electroshock seizures) delivered via corneal electrodes for 0.2 seconds. A drop of 0.9% saline is placed on the eye prior to application of the electrodes in order to […]. Abolition of the hind limb tonic extension component of the seizure is defined as protection and results are expressed as the number of animals protected/the number of animals tested.
(§2) The rotorod test is used to evaluate neurotoxicity. The animal is placed on a 1 inch diameter knurled plastic rod rotating at 6 rpm. Normal mice can remain on a rod rotating at this speed indefinitely.
(§3) To differentiate the results between different rodent species, 4b (X=H), as well as 4a (R=H), 4e (R=Cl), 4f (R=Cl) and 4i (R=CH3) are subsequently evaluated for oral (po) activity in the rat (Phase VIA or VIB).

[2] = tested on: maximal electroshock seizures; assay: maximal electroshock (MES) test, oral rat (Phase VIA/VIB); assay type: in vivo, male Sprague-Dawley rats; conditions: for ED50: MES, Phase VIB
Method: as §1, §3

neurotoxicity (rotorod) [3] = assay: rotorod test for neurological toxicity (Tox), Phase I, mice ip; assay type: in vivo, male Carworth Farms No. 1 (CF1) mice
Method: as §1
The rotorod test is used to evaluate neurotoxicity. The animal is placed on a 1 inch diameter knurled plastic rod rotating at 6 rpm. Normal mice can remain on a rod rotating at this speed indefinitely. […]

[4] = tested on: pentylenetetrazol seizures; assay: subcutaneous pentylenetetrazol (scMet) test, Phase I, mice ip; assay type: in vivo, male Carworth Farms No. 1 (CF1) mice; conditions: Mus musculus, mice ip
Method: as §1
In the sc MET test, eighty-five mg/kg of pentylenetetrazol, which induces seizures in more than 95% of mice, is administered as a 0.5% solution subcutaneously in the posterior midline. The animal is observed for 30 minutes. Failure to observe even a threshold seizure (a single episode of clonic spasms of at least 5 seconds duration) is defined as protection and the results are expressed as the number of animals protected/ the number of animals tested. […]

neurotoxicity (rotorod) [5] = assay: rotorod toxicity, oral rat (Phase VIA/VIB); assay type: in vivo, male Sprague-Dawley rats; conditions: rat oral, 30 mg/kg
Method: as §1, §2, §3

[6] = tested on: maximal electroshock seizures; assay: maximal electroshock (MES) test, Phase I, mice ip; assay type: in vivo, male Carworth Farms No. 1 (CF1) mice; conditions: for responders at 10 mg/kg / responders at 30 mg/kg / responders at 100 mg/kg / responders at 300 mg/kg: Mus musculus
Method: as §1
In phase I, compounds are suspended in 0.5% aqueous methylcellulose and are administered intraperitoneally at three dosage levels (30, 100, and 300 mg/kg) with anticonvulsant activity and motor impairment noted 30 min and 4 h (and in some cases 2 h and 6 h) after administration.

[7] = tested on: maximal electroshock seizures; assay: MES confirmation of TTE test, mice ip; assay type: in vivo; conditions: 100 mg/kg
Method: as §1
(§4) Piredda, S. G.; Woodhead, J. H.; Swinyard, E. A. Effect of stimulus intensity on the profile of anticonvulsant activity of phenytoin, ethosuximide and valproate. J. Pharmacol. Exp. Ther. 1985, 232, 741-745. The TTE test is a clinically nonselective, electroconvulsive seizure model that identifies compounds that raise seizure threshold as well as those that prevent seizure spread. […] The TTE test is similar to the MES screen but uses a lower level of electrical current. The lower current makes the TTE test more sensitive, but less discriminate than the MES screen. This ability makes the model attractive because it allows for the identification of compounds that may have been omitted by the standard identification screen. […] These TTE active compounds may represent compounds acting by novel mechanisms.
Twenty mice are pretreated with 100 mg/kg of the test compound. At several time intervals (15 min, 30 min, 1 h, 2 h and 4 h) post treatment with the test compound, four mice at each time point are challenged with 12.5 mA of electrical current for 0.2 sec via corneal electrodes. This stimulation produces a TTE seizure in the animals. For each time interval, results are expressed as a ratio of the number of animals protected over the number of animals tested.

[8] = tested on: threshold tonic extension electroshock seizures; assay: Threshold Tonic Extension (TTE) test, mice ip; assay type: in vivo; conditions: 100 mg/kg
Excerpt: as §4
Twenty mice are pretreated with 100 mg/kg of the test compound. […] This stimulation produces a TTE seizure in the animals. For each time interval, results are expressed as a ratio of the number of animals protected over the number of animals tested.

[9] = 0.5 h, 30 min, read-out: scMet 30 min
[10] = 4 h, read-out: MES 4 h (converted)
[11] = 0.5 h, 30 min, read-out: MES 30 min (converted)

COC(=O)[C@@H]1C(=O)C=C(Nc2ccc(Cl)cc2)C[C@H]1C (relative stereo) [Compound 1, methyl 4-[(4'-chlorophenyl)-amino]-6-methyl-2-oxo-3-cyclohexene-1-carboxylate, reference compound]
TD50 [1]: > 380 mg/kg | responders at 10 mg/kg ([2]; 0.25 h): 75% | responders at 10 mg/kg ([2]; 1.00 h): 100% | responders at 10 mg/kg ([2]; 2.00 h): 100% | responders at 10 mg/kg ([2]; 4.00 h): 75% | responders at 10 mg/kg ([2]; 0.5 h, 0.50 h): 100% | ED50 ([2]; first test, read-out: ED50): 5.8 mg/kg | MES (repeat test) ([2]; repeat test, 0.50 h): 3/4 | MES (repeat test) ([2]; repeat test, 1.00 h): 2/4 | MES (repeat test) ([2]; repeat test, 2.00 h): 1/4

CCOC(=O)[C@@H]1C(=O)C2=C(C[C@H]1C)Nc1ccccc1S2 (relative stereo) [Compound 4b, 3-Carbethoxy-2-methyl-2,3-dihydro-1H-phenothiazin-4[10H] -one]
Tox 30 min (neurotoxicity (rotorod) [3]; 10 mg/kg): 0/4 | Tox 4 h (neurotoxicity (rotorod) [3]; 10 mg/kg): 0/2 | Tox 30 min (neurotoxicity (rotorod) [3]; 30 mg/kg): 0/8 | Tox 4 h (neurotoxicity (rotorod) [3]; 30 mg/kg): 0/4 | Tox 30 min (neurotoxicity (rotorod) [3]; 100 mg/kg): 0/4 | Tox 4 h (neurotoxicity (rotorod) [3]; 100 mg/kg): 0/2 | responders at 10 mg/kg [4, 9]: 0% | responders at 30 mg/kg [4, 9]: 0% | responders at 100 mg/kg [4, 9]: 0% | responders at 10 mg/kg ([4]; 4 h, read-out: scMet 4 h): 0% | responders at 30 mg/kg ([4]; 4 h, read-out: scMet 4 h): 0% | responders at 100 mg/kg ([4]; 4 h, read-out: scMet 4 h): 0% | TD50 [1]: > 500 mg/kg | Tox (neurotoxicity (rotorod) [5]; 0.25 h): 0/4 | Tox (neurotoxicity (rotorod) [5]; 0.50 h): 1/2 | Tox (neurotoxicity (rotorod) [5]; 1.00 h): 0/4 | Tox (neurotoxicity (rotorod) [5]; 2.00 h): 0/4 | Tox (neurotoxicity (rotorod) [5]; 4.00 h): 0/4 | responders at 30 mg/kg ([2]; 0.25 h): 75% | responders at 30 mg/kg ([2]; 1.00 h): 50% | responders at 30 mg/kg ([2]; 2.00 h): 0% | responders at 30 mg/kg ([2]; 4.00 h): 100% | responders at 30 mg/kg ([2]; 0.5 h, 0.50 h): 25% | ED50 ([2]; repeat test, read-out: ED50 (repeat test)): 47.2 mg/kg | protective index (TD50/ED50) ([2]; repeat test (ED50 47.2, TD50 >500 mg/kg)): > 10.6 | responders at 10 mg/kg ([6]; 4 h, read-out: MES 4 h): 0% | responders at 30 mg/kg ([6]; 4 h, read-out: MES 4 h): 0% | responders at 100 mg/kg [6, 10]: 0% | responders at 10 mg/kg ([6]; 0.5 h, 30 min, read-out: MES 30 min): 0% | responders at 30 mg/kg [6, 11]: 33.3% | responders at 100 mg/kg [6, 11]: 100%

CC1CC(=O)C2=C(C1)Nc1ccccc1S2 (centres unmarked) [Compound 4d, 2-Methyl-2,3-dihydro-1H-phenothiazin-4[10H] -one]
Tox 30 min (neurotoxicity (rotorod) [3]; 30 mg/kg): 0/4 | Tox 4 h (neurotoxicity (rotorod) [3]; 30 mg/kg): 0/2 | Tox 30 min (neurotoxicity (rotorod) [3]; 100 mg/kg): 0/8 | Tox 4 h (neurotoxicity (rotorod) [3]; 100 mg/kg): 0/4 | Tox 30 min (neurotoxicity (rotorod) [3]; 300 mg/kg): 0/4 | Tox 4 h (neurotoxicity (rotorod) [3]; 300 mg/kg): 0/2 | responders at 30 mg/kg [4, 9]: 0% | responders at 100 mg/kg [4, 9]: 0% | responders at 300 mg/kg ([4]; 0.5 h, 30 min, read-out: scMet 30 min (converted)): 0% | responders at 30 mg/kg ([4]; 4 h, read-out: scMet 4 h): 0% | responders at 100 mg/kg ([4]; 4 h, read-out: scMet 4 h): 0% | responders at 300 mg/kg ([4]; 4 h, read-out: scMet 4 h (converted)): 0% | MES confirmation ([7]; 0.25 h): 0/4 | MES confirmation (repeat test) ([7]; 0.25 h): 1/4 | MES confirmation ([7]; 0.50 h): 3/4 | MES confirmation (repeat test) ([7]; 0.50 h): 1/4 | MES confirmation ([7]; 1.00 h): 1/4 | MES confirmation ([7]; 2.00 h): 0/4 | TTE Result ([8]; 0.25 h): 1/4 | TTE Result (repeat test) ([8]; 0.25 h): 2/4 | TTE Result ([8]; 0.50 h): 3/4 | TTE Result (repeat test) ([8]; 0.50 h): 2/4 | TTE Result ([8]; 1.00 h): 1/4 | TTE Result (repeat test) ([8]; 1.00 h): 0/4 | TTE Result ([8]; 2.00 h): 3/4 | TTE Result (repeat test) ([8]; 2.00 h): 0/4 | TTE Result ([8]; 4.00 h): 0/4 | TTE Result (repeat test) ([8]; 4.00 h): 0/4 | TTE Result (repeat test) ([8]; 6.00 h): 1/4 | responders at 30 mg/kg ([6]; 4 h, read-out: MES 4 h): 0% | responders at 100 mg/kg [6, 10]: 0% | responders at 300 mg/kg [6, 10]: 0% | responders at 30 mg/kg [6, 11]: 0% | responders at 100 mg/kg [6, 11]: 0% | responders at 300 mg/kg [6, 11]: 0% | phase I activity ([6]; Phase I, in words): inactive
